Here are results for 4 molecules from patent US4576959A, “6-Substituted-4-dialkylaminotetrahydrobenz[c,d]indoles” (priority 1985, dated 1986).

A short description of assay [1]: Serum corticosteroids (corticosterone). Format: in vivo, Wistar rats. The note with it: 0.3 mg./kg. s.c., 1 hour before rats were killed; control 7 ± 1; * = statistically significant. Here is the method:
(§1) The following protocol was employed. 150-200 g. Wistar rats were given 0.3 mg./kg. subcutaneously of (±)-4-di-n-propylamino-6-substituted-1,3,4,5-tetrahydrobenz[c,d]indole.Then, 60 minutes later each rat was decapitated and the hypothalamus and striatum were dissected out and extracted. The amounts of homovanillic acid (HVA) and 3,4-dihydroxyphenylacetic acid (DOPAC) in the striatum and of 5-hydroxyindoleacetic acid (5HIAA) in the hypothalamus were measured by high-performance liquid chromatography, using electrochemical detection. Serum corticosteroids were also measured. In the table, columns 1 and 2 give the substitution pattern in the compounds of formula IV, columns 3-5, the 5HT or dopamine metabolite concentrations, and column 6, the serum corticosteroids.

In assay [2] the test system is dopamine (metabolites in striatum). The experiment in a line: Changes in dopamine metabolites (DOPAC, HVA) in striatum as a measure of dopamine agonist activity. Format: in vivo, Wistar rats. The note with it: 0.3 mg./kg. s.c., 1 hour before rats were killed, * = statistically significant; for Dopamine Metabolites In Striatum, HVA: control 4.24 ± .27; for Dopamine Metabolites In Striatum, DOPAC: control 5.58 ± .38. Here is the method:
(§2) Secondly, as a measure of central serotonin agonist activity, the decrease of serotonin metabolites in brain was measured. Also the measure of dopamine agonist activity was indicated by changes in dopamine metabolites.
as §1

Assay [3] relates to central serotonin (5HIAA in hypothalamus). The experiment in a line: Decrease of serotonin metabolite 5HIAA in hypothalamus as a measure of central serotonin agonist activity. Format: in vivo, Wistar rats. The note with it: 0.3 mg./kg. s.c., 1 hour before rats were killed; control 2.59 ± .11; * = statistically significant. Here is the method: as §2, §1
In assay [4] the target is T1, ^3 H-spiperone (^3 H-SPIP) receptor binding, cerebral cortex (Rattus norvegicus, UniProt P14842).
T1 construct: The cerebral cortex was dissected out and then homogenized and centrifuged; from tissue; host or cells: cerebral cortex membranes of male Wistar rats
The experiment in a line: Inhibition of ^3 H-spiperone (^3 H-SPIP) specific binding in rat cerebral cortex membranes. Also on record: species or system male Wistar rats. The conditions noted are these: ^3 H-spiperone 0.6-0.7 nM, 15 minutes at 37°, pH=7.4, values in nanomoles of inhibitor, read-out: ^3 H-Ligand-IC50, ^3 H-SPIP.
Experimental: Brain tissue was obtained from 150-200 g. male Wistar rats. The cerebral cortex was dissected out and then homogenized and centrifuged according to the method described by Nelson and coworkers, Mol. Pharmacol., 14, 983-995 (1978), using preincubation in buffer without added monoamine oxidase inhibitor in order to eliminate endogenous serotonin. For receptor binding, each sample contained 300-400 μg. of membrane protein and 10 μM pargyline in addition to the ^3 H-ligand in 1 ml. of 0.05M tris buffer, pH=7.4. The assay of serotinin binding was done following the method of Bennett and Snyder, Mol. Pharmacol., 12, 373-389 (1976), and that for tritiated spiperone according to Peroutka and Snyder, Mol. Pharmacol., 16, 687-699 (1979). The samples were incubated for 15 minutes at 37° and were then filtered through GF/C glass fiber filter pads using a Brandel M-24 cell harvester modified for receptor binding. After two 5 ml. rinses, the filter discs were put into scintillation vials and counted in 10 ml. of Amersham PCS scintillation fluid. Nonspecific binding of ^3 H-serotonin (^3 H-5HT) was determined in the presence of 10^-5 M serotonin and of ^3 H-spiperone in the presence of 10^-6 M LSD. Specific binding was calculated as the difference between total binding with no added nonradioactive compound and the nonspecific binding.

The target of assay [5] is ^3 H-serotonin (^3 H-5HT) receptor binding, cerebral cortex. The experiment in a line: Inhibition of ^3 H-serotonin (^3 H-5HT) specific binding in rat cerebral cortex membranes. Also on record: species or system male Wistar rats. The note with it: ^3 H-serotonin 2-3 nM, 15 minutes at 37°, pH=7.4, values in nanomoles of inhibitor, read-out: ^3 H-Ligand-IC50, ^3 H-5HT.
Assay [6] deals with dopamine uptake in bovine striatal membrane. The conditions noted are these: cited from earlier work.

T1 sequence (P14842 whole entry): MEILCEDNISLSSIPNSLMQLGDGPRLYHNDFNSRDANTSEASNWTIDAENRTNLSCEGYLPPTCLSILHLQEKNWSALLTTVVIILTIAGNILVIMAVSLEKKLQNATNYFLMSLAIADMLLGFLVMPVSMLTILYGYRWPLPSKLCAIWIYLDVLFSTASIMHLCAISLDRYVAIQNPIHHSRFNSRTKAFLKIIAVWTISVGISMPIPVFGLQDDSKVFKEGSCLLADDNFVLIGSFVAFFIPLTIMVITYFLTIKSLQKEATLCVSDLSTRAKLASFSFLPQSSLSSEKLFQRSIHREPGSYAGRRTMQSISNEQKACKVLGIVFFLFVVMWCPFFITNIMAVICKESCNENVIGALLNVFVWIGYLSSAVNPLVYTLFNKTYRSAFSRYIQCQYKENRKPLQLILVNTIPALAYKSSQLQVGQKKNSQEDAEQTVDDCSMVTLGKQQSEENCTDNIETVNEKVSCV

The IC50 is the point on the concentration scale where inhibition reaches its midpoint. Regarding `CCCN(CCC)C1Cc2c[nH]c3ccc([N+](=O)[O-])c(c23)C1` (racemic) [(±)-4-Di-n-propylamino-6-nitro-1,3,4,5-tetrahydrobenz[c,d]indole], the “Serum Corticosterone” value in assay [1] is on record as 49 ± 2 MCG/100 ML. In assay [2], the “Dopamine Metabolites In Striatum, HVA” value is 2.02 ± .20 NMoles/G. Moreover, the “Dopamine Metabolites In Striatum, DOPAC” value in assay [2] was 3.74 ± .11 NMoles/G. In assay [3], the “5HIAA In Hypothalamus” value is given as 2.29 ± .03 NMoles/G. Besides, the half-inhibitory concentration (IC50) in assay [4] was determined as 400 nM; in assay [5], 100 nM.

Consider `CCCN(CCC)C1Cc2c[nH]c3ccc(C#N)c(c23)C1` (racemic) [(±)-4-Di-n-propylamino-6-cyano-1,3,4,5-tetrahydrobenz[c,d]indole], for which the “Serum Corticosterone” value in assay [1] is listed as 47 ± 4 MCG/100 ML. Also, in assay [2], the “Dopamine Metabolites In Striatum, HVA” value is 2.27 ± .16 NMoles/G and the “Dopamine Metabolites In Striatum, DOPAC” value is listed as 4.25 ± .25 NMoles/G. The “5HIAA In Hypothalamus” value in assay [3] is listed as 2.34 ± .07 NMoles/G. The IC50 in assay [4] is 390 nM. In assay [5], the half-maximal inhibitory concentration (IC50) worked out at 90 nM.

For `CCCN(CCC)C1Cc2c[nH]c3ccc(C(N)=O)c(c23)C1` (racemic) [(±)-4-Di-n-propylamino-6-carbamoyl-1,3,4,5-tetrahydrobenz[c,d]indole], the “Serum Corticosterone” value in assay [1] is 49 ± 2 MCG/100 ML. For the same molecule, in assay [2], the “Dopamine Metabolites In Striatum, HVA” value is recorded as 4.12 ± .27 NMoles/G and the “Dopamine Metabolites In Striatum, DOPAC” value is given as 6.23 ± .56 NMoles/G. The “5HIAA In Hypothalamus” value in assay [3] is listed as 1.58 ± .03 NMoles/G. For the same molecule, in assay [4], the IC50 was 4980 nM. In addition, the IC50 in assay [5] was 60 nM.

As to `CCCN(CCC)C1Cc2cccc3[nH]cc(c23)C1` (racemic) [(±)-4-(di-n-propyl)amino-1,3,4,5-tetrahydrobenz[c,d]indole], in assay [6], the “dopamine agonist action (inhibiting dopamine uptake in bovine striatal membrane in vitro)” value is “selective dopamine agonist”.
